Measured values: patent US20080045535A1, “Prokineticin 2 receptor antagonists” (priority 2005, published 2008)
Where “and” joins values, the source holds several entries; their conditions need not be identical. Identical values can stand only once.

Molecular target: T1, HEK 293 GPR73 (prokineticin 1 receptor) expressing cells (Homo sapiens, UniProt Q8TCW9)
T1 construct: expressed in transfected cells; host or cells: HEK 293
Test: PK1 functional assay: screening for PK1 antagonists on the FLIPR (calcium fluorescence)
Type: cell-based
Conditions: HEK 293 GPR73 cells; for inhibition at 10 µM: HEK293, compound at 10 μM, read-out: Ca^2+ Mobilization % Inh @10 μM; for inhibition at 10 µM / Ca^2+ Mobilization % Inh @10 μM: multiple values = repeat tests; for IC50: PK1 ligand at EC50, multiple values = repeat tests, read-out: Ca^2+ Mobilization IC50; for Ca^2+ Mobilization % Inh @10 μM: compound at 10 μM
In short: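 HEK 293 cells expressing GPR73 were loaded with Calcium Plus Dye for 30 min at 37 C, then read for calcium fluorescence on FLIPR. Values were baseline-subtracted and expressed as percent of maximal control; percent inhibition is 100 minus that, and IC50 was fitted from it.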

T1 sequence (Q8TCW9 whole entry): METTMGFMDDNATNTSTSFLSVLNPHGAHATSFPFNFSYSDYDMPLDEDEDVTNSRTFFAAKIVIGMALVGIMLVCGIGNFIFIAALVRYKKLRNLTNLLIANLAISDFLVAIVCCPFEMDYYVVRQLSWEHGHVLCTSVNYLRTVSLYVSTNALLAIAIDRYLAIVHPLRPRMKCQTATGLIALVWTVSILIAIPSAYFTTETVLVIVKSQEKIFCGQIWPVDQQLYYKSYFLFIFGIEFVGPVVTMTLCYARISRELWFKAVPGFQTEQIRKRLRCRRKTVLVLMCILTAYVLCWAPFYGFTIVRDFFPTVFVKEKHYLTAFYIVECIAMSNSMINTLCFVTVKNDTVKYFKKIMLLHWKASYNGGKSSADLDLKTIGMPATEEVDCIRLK

Row | inhibition at 10 µM [%] | IC50 | Ca^2+ Mobilization % Inh @10 μM | Ca^2+ Mobilization % Inh @10 μM (10 µM) [%] | Compound
1 | 100 | 0.058 µM |  |  | COc1ccc(Cn2c(NCCNC(=N)Nc3ccc(OC(F)(F)F)cc3)nc(=O)n(Cc3ccc(F)cc3)c2=O)cc1 [Cpd 127]
2 | 100 | 0.04 µM |  |  | COc1ccc(Cn2c(NCCNC(=N)Nc3ccc(O)cc3)nc(=O)n(Cc3ccc(F)cc3)c2=O)cc1 [Cpd 128]
3 | 64 | 4.78 µM |  |  | NC(N)=NCCNc1nc(=O)n(Cc2ccc(Cl)cc2)c(=O)n1Cc1ccccc1 [Cpd 129]
4 | 71 | 1.87 µM |  |  | N=C(N)NCCNc1nc(=O)n(Cc2ccc(Cl)cc2)c(=O)n1Cc1ccoc1 [Cpd 130]
5 |  | > 10 µM | 32% |  | COc1ccc(Cn2c(NC3CCC(NC(=N)N)CC3)nc(=O)n(Cc3ccc(F)cc3)c2=O)cc1 (stereo not drawn) [Cpd 131]
6 | 54 | 8.5 µM |  |  | COc1ccc(Cn2c(NCC(=O)NC(=N)NC(=O)OC(C)(C)C)nc(=O)n(Cc3ccc(F)cc3)c2=O)cc1 [Cpd 132, N-{2-[5-(4-fluoro-benzyl)-1-(4-methoxy-benzyl)-4,6-dioxo-1,4,5,6-tetrahydro-[1,3,5]triazin-2-ylamino]-acetyl}-N′-boc-guanidine]
7 | 93 | 0.2 µM |  |  | COc1ccc(Cn2c(NCCNC(=N)Nc3ccccc3SC)nc(=O)n(Cc3ccc(F)cc3)c2=O)cc1 [Cpd 133]
8 |  | 0.019 µM and 0.028 µM | 97, 97% |  | COc1ccc(Cn2c(NCCN(C(=N)N)C(=O)c3ccccc3)nc(=O)n(Cc3ccc(F)cc3)c2=O)cc1 [Cpd 134, N-Benzoyl-N-{2-[5-(4-fluoro-benzyl)-1-(4-methoxy-benzyl)-4,6-dioxo-1,4,5,6-tetrahydro-[1,3,5]triazin-2-ylamino]-ethyl}-guanidine]
9 | 100 | 0.013 µM and 0.024 µM |  | 94 | COc1ccc(Cn2c(NCCNC(=N)Nc3ncccn3)nc(=O)n(Cc3ccc(F)cc3)c2=O)cc1 [Cpd 135]
10 | 50 | > 10 µM |  |  | COc1ccc(Cn2c(N[C@@H](C)[C@H](C)NC(=N)N)nc(=O)n(Cc3ccc(F)cc3)c2=O)cc1 [Cpd 136]
11 | 101 | 0.015 µM and 0.031 µM |  |  | COc1ccc(Cn2c(N[C@H](C)[C@@H](C)NC(=N)N)nc(=O)n(Cc3ccc(F)cc3)c2=O)cc1 [Cpd 137]
12 | 70 | 1.34 µM |  |  | COc1ccc(Cn2c(NCCNC(=N)Nc3nc4c(c(C(F)(F)F)n3)CCCC4)nc(=O)n(Cc3ccc(F)cc3)c2=O)cc1 [Cpd 138]
13 | 95 | 0.018 µM |  |  | COc1ccc(Cn2c(NCCNC(=N)Nc3ccc(C)cn3)nc(=O)n(Cc3ccc(F)cc3)c2=O)cc1 [Cpd 139]
14 | 89 | 0.455 µM |  |  | COc1ccc(Cn2c(NCCNC(=N)N3CCOCC3)nc(=O)n(Cc3ccc(F)cc3)c2=O)cc1 [Cpd 140]
15 | 73 | 1.84 µM |  |  | N=C(N)NCCNc1nc(=O)n(Cc2ccc(Cl)cc2)c(=O)n1Cc1ccco1 [Cpd 141]
16 | 90 | 0.323 µM |  |  | COc1ccc(Cn2c(NCCCCCNC(=N)N)nc(=O)n(Cc3ccc(Cl)cc3)c2=O)cc1 [Cpd 142]
17 | 100 | 0.006 µM and 0.027 µM |  |  | COc1ccc(Cn2c(=O)nc(NCCNC(=N)N)n(Cc3ccc(O)cc3)c2=O)cc1 [Cpd 143, N-{2-[1-(4-Hydroxy-benzyl)-5-(4-methoxy-benzyl)-4,6-dioxo-1,4,5,6-tetrahydro-[1,3,5]triazin-2-ylamino]-ethyl}-guanidine]
18 | 77 | 1.33 µM |  |  | COc1ccc(Cn2c(NCCCCCCNC(=N)N)nc(=O)n(Cc3ccc(Cl)cc3)c2=O)cc1 [Cpd 144]

Row | inhibition at 10 µM [%] | IC50 | Ca^2+ Mobilization % Inh @10 μM | Ca^2+ Mobilization % Inh @10 μM (10 µM) [%] | Compound
19 | 86 | 0.461 µM |  |  | COc1ccc(CCn2c(=O)nc(NCCNC(=N)N)n(Cc3ccc(OC)cc3)c2=O)cc1 [Cpd 145]
20 | 87 | 0.67 µM |  |  | COc1ccc(CCCn2c(=O)nc(NCCNC(=N)N)n(Cc3ccc(OC)cc3)c2=O)cc1 [Cpd 146]
21 | 82 |  |  |  | COC(=O)c1ccc(Cn2c(NCCNC(=N)N)nc(=O)n(Cc3ccc(Cl)c(Cl)c3)c2=O)cc1 [Cpd 147]
22 | 41 | > 10 µM |  |  | CCCCOc1ccc(Cn2c(NCCNC(=N)N)nc(=O)n(Cc3ccccc3)c2=O)cc1 [Cpd 148]
23 |  | 4.78 µM | 64% |  | NC(N)=NCCNc1nc(=O)n(Cc2ccc(Cl)cc2)c(=O)n1Cc1ccccc1 [Cpd 149]
24 |  | 1.87 µM | 71% |  | N=C(N)NCCNc1nc(=O)n(Cc2ccc(Cl)cc2)c(=O)n1Cc1ccoc1 [Cpd 150]
25 | 99 | 0.003 µM |  |  | COc1ccc(Cn2c(NCCNC(=N)NC(C)=O)nc(=O)n(Cc3ccc(F)cc3)c2=O)cc1 [Cpd 151]
26 | 97 | 0.009 µM |  |  | C=CCNC(=N)NCCNc1nc(=O)n(Cc2ccc(F)cc2)c(=O)n1Cc1ccc(OC)cc1 [Cpd 152]
27 | 99 | 0.013 µM |  |  | COc1ccc(Cn2c(NCCNC(=N)NC(C)C)nc(=O)n(Cc3ccc(F)cc3)c2=O)cc1 [Cpd 153]
28 | 99 | 0.003 µM and 0.006 µM |  | 98 | CCCNC(=N)NCCNc1nc(=O)n(Cc2ccc(F)cc2)c(=O)n1Cc1ccc(OC)cc1 [Cpd 154]
29 | 99 | 0.016 µM |  |  | CCNC(=N)NCCNc1nc(=O)n(Cc2ccc(F)cc2)c(=O)n1Cc1ccc(OC)cc1 [Cpd 155]
30 | 102 | 0.004 µM and 0.007 µM |  | 99 | CNC(=N)NCCNc1nc(=O)n(Cc2ccc(F)cc2)c(=O)n1Cc1ccc(OC)cc1 [Cpd 156]
31 | 92 | 0.197 µM |  |  | COc1ccc(Cn2c(C(=O)NCCNC(=N)N)cc(=O)n(Cc3ccc(OC)cc3)c2=O)cc1 [Cpd 157, 1,3-Bis-(4-methoxy-benzyl)-2,6-dioxo-1,2,3,6-tetrahydro-pyrimidine-4-carboxylic acid (2-guanidino-ethyl)-amide]
32 | 93 | 0.254 µM |  |  | COc1ccc(Cn2c(OCCNC(=N)N)cc(=O)n(Cc3ccc(OC)cc3)c2=O)cc1 [Cpd 158, N-{2-[1,3-Bis-(4-methoxy-benzyl)-2,6-dioxo-1,2,3,6-tetrahydro-pyrimidin-4-yloxy]-ethyl}-guanidine]
33 | 98 | 0.013 µM |  |  | COc1ccc(Cn2c(SCCNC(=N)N)cc(=O)n(Cc3ccc(OC)cc3)c2=O)cc1 [Cpd 159, N-{2-[1,3-Bis-(4-methoxy-benzyl)-2,6-dioxo-1,2,3,6-tetrahydro-pyrimidin-4-ylsulfanyl]-ethyl}-guanidine]
34 | 89 | 0.616 µM |  |  | COc1ccc(Cn2c(CCCNC(=N)N)cc(=O)n(Cc3ccc(OC)cc3)c2=O)cc1 [Cpd 160, N-{3-[1,3-Bis-(4-methoxy-benzyl)-2,6-dioxo-1,2,3,6-tetrahydro-pyrimidin-4-yl]-propyl}guanidine]
35 |  | 1.97 µM | 55% |  | N-{2-[5-Benzyl-1-(4-methoxy-benzyl)-4,6-dioxo-1,4,5,6-tetrahydro-[1,3,5]triazin-2-ylamino]-ethyl}-oxyguanidine [Cpd 27]
